# From patent publication US8637525B2, “Compounds for the reduction of beta-amyloid production” (Bristol-Myers Squibb Company, priority 2009, dated 2014)
# Read-outs that look alike come from different tables or passages of the source.
# System: Aβ1-42 production
# Experiment: Cellular assay for inhibition of Aβ1-42 production (H4 APP751 SWE clone 8.20)
# Type: cell-based
# Conditions: H4 APP751 SWE clone 8.20 cells, 19 h incubation
# Procedure, shortened: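 Aβ42 read by time-resolved FRET using neoepitope antibody 565 (0.8 ng/well) paired with N-terminal 26D6 (75 ng/well), incubated overnight at 4 °C, then IC50 curve fitting. Cells: H4 APP751 Swedish clone 8.20, exposed to compound for 19 h at 37 °C.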
# [1] = class symbols, read-out: Activity Rating (Aβ42 cellular IC50)
# [2] = 19 h, class symbols, read-out: Activity Rating (Aβ42 cellular IC50)
# [3] = 19 h, read-out: Activity Rating (Aβ42 cellular IC50), numeric value
# [4] = read-out: Activity Rating (Aβ42 cellular IC50), numeric value
Structure (SMILES),IC50 [1],further results
"COCC(Nc1nc(Nc2ccc(-n3cnc(Cl)c3)c(OC)c2)nc2c1CCC2c1ccc(F)cc1)C1CC1 (single isomer, unassigned) [Example 45D, N2-(4-(4-chloro-1H-imidazol-1-yl)-3-methoxyphenyl)-N4-(1-cyclopropyl-2-methoxyethyl)-7-(4-fluorophenyl)-6,7-dihydro-5H-cyclopenta[d]pyrimidine-2,4-diamine]",1.5 to 9.9 nM,–
"COc1cc(Nc2nc3c(c(N(C)C)n2)CCC3c2ccc(F)cc2)ccc1-n1cnc(Cl)c1 (single isomer, unassigned) [Example 46A, N^2-(4-(4-chloro-1H-imidazol-1-yl)-3-methoxyphenyl)-7-(4-fluorophenyl)-N^4,N^4-dimethyl-6,7-dihydro-5H-cyclopenta[d]pyrimidine-2,4-diamine]",1.5 to 9.9 nM,–
"COc1cc(Nc2nc3c(c(N(C)C)n2)CCC3c2ccc(F)cc2)ccc1-n1cnc(Cl)c1 (single isomer, unassigned) [Example 46B, N^2-(4-(4-chloro-1H-imidazol-1-yl)-3-methoxyphenyl)-7-(4-fluorophenyl)-N^4,N^4-dimethyl-6,7-dihydro-5H-cyclopenta[d]pyrimidine-2,4-diamine]",10 to 100 nM,–
"CC[C@H](COC)Nc1nc(Nc2ccc(-n3cnc(Cl)c3)c(OC)c2)nc2c1CCC2c1ccc(F)cc1 (single isomer, unassigned) [Example 48A]",–,IC50 [2]: 1.5 to 9.9 nM
"CC[C@H](COC)Nc1nc(Nc2ccc(-n3cnc(Cl)c3)c(OC)c2)nc2c1CCC2c1ccc(F)cc1 (single isomer, unassigned) [Example 48B]",–,IC50 [3]: 130 nM
"COc1cc(Nc2nc(N[C@H](C)C3CC3)c3c(n2)C(c2ccc(F)cc2)CC3)ccc1-n1cnc(Cl)c1 (single isomer, unassigned) [Example 49A]",1.5 to 9.9 nM,–
"COc1cc(Nc2nc(N[C@H](C)C3CC3)c3c(n2)C(c2ccc(F)cc2)CC3)ccc1-n1cnc(Cl)c1 (single isomer, unassigned) [Example 49B]",10 to 100 nM,–
"COc1cc(Nc2nc(N[C@@H](C)C3CC3)c3c(n2)C(c2ccc(F)cc2)CC3)ccc1-n1cnc(Cl)c1 (single isomer, unassigned) [Example 50A]",1.5 to 9.9 nM,–
"COc1cc(Nc2nc(N[C@@H](C)C3CC3)c3c(n2)C(c2ccc(F)cc2)CC3)ccc1-n1cnc(Cl)c1 (single isomer, unassigned) [Example 50B]",10 to 100 nM,–
"CNc1nc(Nc2ccc(-n3cnc(Cl)c3)c(OC)c2)nc2c1COCC2c1ccccc1 (single isomer, unassigned) [Example 51A, N^2-(4-(4-chloro-1H-imidazol-1-yl)-3-methoxyphenyl)-N^4-methyl-8-phenyl-7,8-dihydro-5H-pyrano[4,3-d]pyrimidine-2,4-diamine]",–,IC50 [2]: 1.5 to 9.9 nM
"CNc1nc(Nc2ccc(-n3cnc(Cl)c3)c(OC)c2)nc2c1COCC2c1ccccc1 (single isomer, unassigned) [Example 51B, N^2-(4-(4-chloro-1H-imidazol-1-yl)-3-methoxyphenyl)-N^4-methyl-8-phenyl-7,8-dihydro-5H-pyrano[4,3-d]pyrimidine-2,4-diamine]",1.5 to 9.9 nM,–
"CCN(C)c1nc(Nc2ccc(-n3cnc(Cl)c3)c(OC)c2)nc2c1COCC2c1ccccc1 (single isomer, unassigned) [Example 52A, N^2-(4-(4-Chloro-1H-imidazol-1-yl)-3-methoxyphenyl)-N^4-ethyl-N^4-methyl-8-phenyl-7,8-dihydro-5H-pyrano[4,3-d]pyrimidine-2,4-diamine]",1.5 to 9.9 nM,–
"CCN(C)c1nc(Nc2ccc(-n3cnc(Cl)c3)c(OC)c2)nc2c1COCC2c1ccccc1 (single isomer, unassigned) [Example 52B, N^2-(4-(4-Chloro-1H-imidazol-1-yl)-3-methoxyphenyl)-N^4-ethyl-N^4-methyl-8-phenyl-7,8-dihydro-5H-pyrano[4,3-d]pyrimidine-2,4-diamine]",10 to 100 nM,–
"COc1cc(Nc2nc3c(c(N(C)C)n2)COCC3c2ccccc2)ccc1-n1cnc(Cl)c1 (single isomer, unassigned) [Example 53A, N^2-(4-(4-Chloro-1H-imidazol-1-yl)-3-methoxyphenyl)-N^4,N^4-dimethyl-8-phenyl-7,8-dihydro-5H-pyrano[4,3-d]pyrimidine-2,4-diamine]",1.5 to 9.9 nM,–
"COc1cc(Nc2nc3c(c(N(C)C)n2)COCC3c2ccccc2)ccc1-n1cnc(Cl)c1 (single isomer, unassigned) [Example 53B, N^2-(4-(4-Chloro-1H-imidazol-1-yl)-3-methoxyphenyl)-N^4,N^4-dimethyl-8-phenyl-7,8-dihydro-5H-pyrano[4,3-d]pyrimidine-2,4-diamine]",10 to 100 nM,–
"CNc1nc(Nc2ccc(-n3cnc(Cl)c3)c(OC)c2)nc2c1COCC2c1ccc(Cl)cc1 (single isomer, unassigned) [Example 64A, N^2-(4-(4-chloro-1H-imidazol-1-yl)-3-methoxyphenyl)-8-(4-chlorophenyl)-N^4-methyl-7,8-dihydro-5H-pyrano[4,3-d]pyrimidine-2,4-diamine]",1.5 to 9.9 nM,–
"CNc1nc(Nc2ccc(-n3cnc(Cl)c3)c(OC)c2)nc2c1COCC2c1ccc(Cl)cc1 (single isomer, unassigned) [Example 64B, N^2-(4-(4-chloro-1H-imidazol-1-yl)-3-methoxyphenyl)-8-(4-chlorophenyl)-N^4-methyl-7,8-dihydro-5H-pyrano[4,3-d]pyrimidine-2,4-diamine]",10 to 100 nM,–
"COc1cc(Nc2nc3c(c(N(C)C)n2)COCC3c2ccc(Cl)cc2)ccc1-n1cnc(Cl)c1 (single isomer, unassigned) [Example 65A, N^2-(4-(4-chloro-1H-imidazol-1-yl)-3-methoxyphenyl)-8-(4-chlorophenyl)-N^4,N^4-dimethyl-7,8-dihydro-5H-pyrano[4,3-d]pyrimidine-2,4-diamine]",–,IC50 [4]: 5.3 nM
"COc1cc(Nc2nc3c(c(N(C)C)n2)COCC3c2ccc(Cl)cc2)ccc1-n1cnc(Cl)c1 (single isomer, unassigned) [Example 65B, N^2-(4-(4-chloro-1H-imidazol-1-yl)-3-methoxyphenyl)-8-(4-chlorophenyl)-N^4,N^4-dimethyl-7,8-dihydro-5H-pyrano[4,3-d]pyrimidine-2,4-diamine]",–,IC50 [4]: 160 nM
"COc1cc(Nc2nc3c(c(N4CC(F)(F)C4)n2)COCC3c2ccc(Cl)cc2)ccc1-n1cnc(Cl)c1 (single isomer, unassigned) [Example 66A, N-(4-(4-chloro-1H-imidazol-1-yl)-3-methoxyphenyl)-8-(4-chlorophenyl)-4-(3,3-difluoroazetidin-1-yl)-7,8-dihydro-5H-pyrano[4,3-d]pyrimidin-2-amine]",100 to 1000 nM,–
"COc1cc(Nc2nc3c(c(N4CC(F)(F)C4)n2)COCC3c2ccc(Cl)cc2)ccc1-n1cnc(Cl)c1 (single isomer, unassigned) [Example 66B, N-(4-(4-chloro-1H-imidazol-1-yl)-3-methoxyphenyl)-8-(4-chlorophenyl)-4-(3,3-difluoroazetidin-1-yl)-7,8-dihydro-5H-pyrano[4,3-d]pyrimidin-2-amine]",1.5 to 9.9 nM,–
"Cc1ncnn1-c1ccc(Nc2nc3c(c(N(C)C)n2)COCC3c2ccc(Cl)cc2)cc1F (single isomer, unassigned) [Example 67A, 8-(4-chlorophenyl)-N^2-(3-fluoro-4-(5-methyl-1H-1,2,4-triazol-1-yl)phenyl)-N^4,N^4-dimethyl-7,8-dihydro-5H-pyrano[4,3-d]pyrimidine-2,4-diamine]",–,IC50 [2]: 10 to 100 nM
"Cc1ncnn1-c1ccc(Nc2nc3c(c(N(C)C)n2)COCC3c2ccc(Cl)cc2)cc1F (single isomer, unassigned) [Example 67B, 8-(4-chlorophenyl)-N^2-(3-fluoro-4-(5-methyl-1H-1,2,4-triazol-1-yl)phenyl)-N^4,N^4-dimethyl-7,8-dihydro-5H-pyrano[4,3-d]pyrimidine-2,4-diamine]",–,IC50 [3]: 540 nM
"CNc1nc(Nc2ccc(-n3ncnc3C)c(F)c2)nc2c1COCC2c1ccc(Cl)cc1 (single isomer, unassigned) [Example 69A, 8-(4-chlorophenyl)-N^2-(3-fluoro-4-(5-methyl-1H-1,2,4-triazol-1-yl)phenyl)-N^4-methyl-7,8-dihydro-5H-pyrano[4,3-d]pyrimidine-2,4-diamine]",1.5 to 9.9 nM,–
"CNc1nc(Nc2ccc(-n3ncnc3C)c(F)c2)nc2c1COCC2c1ccc(Cl)cc1 (single isomer, unassigned) [Example 69B, 8-(4-chlorophenyl)-N^2-(3-fluoro-4-(5-methyl-1H-1,2,4-triazol-1-yl)phenyl)-N^4-methyl-7,8-dihydro-5H-pyrano[4,3-d]pyrimidine-2,4-diamine]",100 to 1000 nM,–
"CNc1nc(Nc2ccc(-n3cnc(C)c3)c(OC)c2)nc2c1COCC2c1ccc(Cl)cc1 (single isomer, unassigned) [Example 70A, 8-(4-chlorophenyl)-N^2-(3-methoxy-4-(4-methyl-1H-imidazol-1-yl)phenyl)-N^4-methyl-7,8-dihydro-5H-pyrano[4,3-d]pyrimidine-2,4-diamine]",1.5 to 9.9 nM,–
"CNc1nc(Nc2ccc(-n3cnc(C)c3)c(OC)c2)nc2c1COCC2c1ccc(Cl)cc1 (single isomer, unassigned) [Example 70B, 8-(4-chlorophenyl)-N^2-(3-methoxy-4-(4-methyl-1H-imidazol-1-yl)phenyl)-N^4-methyl-7,8-dihydro-5H-pyrano[4,3-d]pyrimidine-2,4-diamine]",10 to 100 nM,–
"CNc1nc(Nc2ccc(-n3cnc(C)n3)c(OC)c2)nc2c1COCC2c1ccc(Cl)cc1 (single isomer, unassigned) [Example 71A, 8-(4-chlorophenyl)-N^2-(3-methoxy-4-(3-methyl-1H-1,2,4-triazol-1-yl)phenyl)-N^4-methyl-7,8-dihydro-5H-pyrano[4,3-d]pyrimidine-2,4-diamine]",1.5 to 9.9 nM,–
